According to ChEMBL document CHEMBL1150794, “Vibrio splendidus as the source of plasmid-mediated QnrS-like quinolone resistance determinants” (2007):
Values after ≈ are worked out from the molar mass of the structure shown.

tested on: Escherichia coli; assay: Antimicrobial activity against Escherichia coli TOP10 harbouring p0 plasmid expressing pCR-BluntII-TOPO; assay type: functional

Row | Structure (SMILES) | MIC
1 | CCn1cc(C(=O)O)c(=O)c2cc(F)c(N3CCNCC3)cc21 [NORFLOXACIN] | 0.03 µg/mL (≈ 0.0939 µM)
2 | CCn1cc(C(=O)O)c(=O)c2ccc(C)nc21 [NALIDIXIC ACID] | 1 µg/mL (≈ 4.31 µM)

tested on: Vibrio splendidus; assay: Antimicrobial activity against Vibrio splendidus 12B01 expressing plasmid-mediated QnrS-like quinolone resistance determinants; assay type: functional

Row | Structure (SMILES) | MIC
3 | COc1c(N2C[C@@H]3CCCN[C@@H]3C2)c(F)cc2c(=O)c(C(=O)O)cn(C3CC3)c12 [MOXIFLOXACIN] | 0.25 µg/mL (≈ 0.623 µM)
4 | CCn1cc(C(=O)O)c(=O)c2cc(F)c(N3CCNCC3)cc21 [NORFLOXACIN] | 0.25 µg/mL (≈ 0.783 µM)
5 | O=C(O)c1cn(C2CC2)c2cc(N3CCNCC3)c(F)cc2c1=O [CIPROFLOXACIN] | 0.25 µg/mL (≈ 0.754 µM)
6 | CC1COc2c(N3CCN(C)CC3)c(F)cc3c(=O)c(C(=O)O)cn1c23 (configuration not stated) [OFLOXACIN] | 0.25 µg/mL (≈ 0.692 µM)
7 | CCn1cc(C(=O)O)c(=O)c2ccc(C)nc21 [NALIDIXIC ACID] | 2 µg/mL (≈ 8.61 µM)
8 | C[C@@H]1CN(c2c(F)c(N)c3c(=O)c(C(=O)O)cn(C4CC4)c3c2F)C[C@H](C)N1 [SPARFLOXACIN] | 0.25 µg/mL (≈ 0.637 µM)

tested on: Escherichia coli; assay: Antimicrobial activity against Escherichia coli TOP10; assay type: functional

Row | Structure (SMILES) | MIC
9 | COc1c(N2C[C@@H]3CCCN[C@@H]3C2)c(F)cc2c(=O)c(C(=O)O)cn(C3CC3)c12 [MOXIFLOXACIN] | < 0.01 µg/mL
10 | CCn1cc(C(=O)O)c(=O)c2cc(F)c(N3CCNCC3)cc21 [NORFLOXACIN] | 0.03 µg/mL (≈ 0.0939 µM)
11 | O=C(O)c1cn(C2CC2)c2cc(N3CCNCC3)c(F)cc2c1=O [CIPROFLOXACIN] | < 0.01 µg/mL
12 | CCn1cc(C(=O)O)c(=O)c2ccc(C)nc21 [NALIDIXIC ACID] | 1 µg/mL (≈ 4.31 µM)
13 | C[C@@H]1CN(c2c(F)c(N)c3c(=O)c(C(=O)O)cn(C4CC4)c3c2F)C[C@H](C)N1 [SPARFLOXACIN] | < 0.01 µg/mL

tested on: Vibrio splendidus; assay: Antimicrobial activity against Vibrio splendidus LGP32 expressing plasmid-mediated QnrS-like quinolone resistance determinants; assay type: functional

Row | Structure (SMILES) | MIC
14 | COc1c(N2C[C@@H]3CCCN[C@@H]3C2)c(F)cc2c(=O)c(C(=O)O)cn(C3CC3)c12 [MOXIFLOXACIN] | 0.25 µg/mL (≈ 0.623 µM)
15 | CCn1cc(C(=O)O)c(=O)c2cc(F)c(N3CCNCC3)cc21 [NORFLOXACIN] | 0.5 µg/mL (≈ 1.57 µM)
16 | O=C(O)c1cn(C2CC2)c2cc(N3CCNCC3)c(F)cc2c1=O [CIPROFLOXACIN] | 0.25 µg/mL (≈ 0.754 µM)
17 | CC1COc2c(N3CCN(C)CC3)c(F)cc3c(=O)c(C(=O)O)cn1c23 (configuration not stated) [OFLOXACIN] | 0.5 µg/mL (≈ 1.38 µM)
18 | CCn1cc(C(=O)O)c(=O)c2ccc(C)nc21 [NALIDIXIC ACID] | 4 µg/mL (≈ 17.2 µM)
19 | C[C@@H]1CN(c2c(F)c(N)c3c(=O)c(C(=O)O)cn(C4CC4)c3c2F)C[C@H](C)N1 [SPARFLOXACIN] | 0.5 µg/mL (≈ 1.27 µM)

tested on: Escherichia coli; assay: Antimicrobial activity against Escherichia coli TOP10 harbouring pS2 plasmid expressing quinolone resistant QnrS2 gene; assay type: functional

Row | Structure (SMILES) | MIC
20 | COc1c(N2C[C@@H]3CCCN[C@@H]3C2)c(F)cc2c(=O)c(C(=O)O)cn(C3CC3)c12 [MOXIFLOXACIN] | 0.25 µg/mL (≈ 0.623 µM)
21 | CCn1cc(C(=O)O)c(=O)c2cc(F)c(N3CCNCC3)cc21 [NORFLOXACIN] | 1 µg/mL (≈ 3.13 µM)
22 | CCn1cc(C(=O)O)c(=O)c2ccc(C)nc21 [NALIDIXIC ACID] | 8 µg/mL (≈ 34.4 µM)
23 | C[C@@H]1CN(c2c(F)c(N)c3c(=O)c(C(=O)O)cn(C4CC4)c3c2F)C[C@H](C)N1 [SPARFLOXACIN] | 0.25 µg/mL (≈ 0.637 µM)

tested on: Escherichia coli; assay: Antimicrobial activity against Escherichia coli TOP10 harbouring pVS1 expressing quinolone resistant Vibrio splendidus 12B01 QnrVS1 gene; assay type: functional

Row | Structure (SMILES) | MIC
24 | COc1c(N2C[C@@H]3CCCN[C@@H]3C2)c(F)cc2c(=O)c(C(=O)O)cn(C3CC3)c12 [MOXIFLOXACIN] | 0.12 µg/mL (≈ 0.299 µM)
25 | CCn1cc(C(=O)O)c(=O)c2cc(F)c(N3CCNCC3)cc21 [NORFLOXACIN] | 0.5 µg/mL (≈ 1.57 µM)
26 | CC1COc2c(N3CCN(C)CC3)c(F)cc3c(=O)c(C(=O)O)cn1c23 (configuration not stated) [OFLOXACIN] | 0.25 µg/mL (≈ 0.692 µM)
27 | CCn1cc(C(=O)O)c(=O)c2ccc(C)nc21 [NALIDIXIC ACID] | 8 µg/mL (≈ 34.4 µM)
28 | C[C@@H]1CN(c2c(F)c(N)c3c(=O)c(C(=O)O)cn(C4CC4)c3c2F)C[C@H](C)N1 [SPARFLOXACIN] | 0.12 µg/mL (≈ 0.306 µM)

tested on: Escherichia coli; assay: Antimicrobial activity against Escherichia coli TOP10 harbouring pVS2 expressing quinolone resistant Vibrio splendidus LGP32 QnrVS2 gene; assay type: functional

Row | Structure (SMILES) | MIC
29 | COc1c(N2C[C@@H]3CCCN[C@@H]3C2)c(F)cc2c(=O)c(C(=O)O)cn(C3CC3)c12 [MOXIFLOXACIN] | 0.12 µg/mL (≈ 0.299 µM)
30 | CCn1cc(C(=O)O)c(=O)c2cc(F)c(N3CCNCC3)cc21 [NORFLOXACIN] | 0.5 µg/mL (≈ 1.57 µM)
31 | CC1COc2c(N3CCN(C)CC3)c(F)cc3c(=O)c(C(=O)O)cn1c23 (configuration not stated) [OFLOXACIN] | 0.25 µg/mL (≈ 0.692 µM)
32 | CCn1cc(C(=O)O)c(=O)c2ccc(C)nc21 [NALIDIXIC ACID] | 8 µg/mL (≈ 34.4 µM)
33 | C[C@@H]1CN(c2c(F)c(N)c3c(=O)c(C(=O)O)cn(C4CC4)c3c2F)C[C@H](C)N1 [SPARFLOXACIN] | 0.12 µg/mL (≈ 0.306 µM)

tested on: Escherichia coli; assay: Antimicrobial activity against Escherichia coli TOP10 harbouring pS1 plasmid expressing quinolone resistant QnrS1 gene; assay type: functional

Row | Structure (SMILES) | MIC
34 | COc1c(N2C[C@@H]3CCCN[C@@H]3C2)c(F)cc2c(=O)c(C(=O)O)cn(C3CC3)c12 [MOXIFLOXACIN] | 0.25 µg/mL (≈ 0.623 µM)
35 | CCn1cc(C(=O)O)c(=O)c2cc(F)c(N3CCNCC3)cc21 [NORFLOXACIN] | 1 µg/mL (≈ 3.13 µM)
36 | CCn1cc(C(=O)O)c(=O)c2ccc(C)nc21 [NALIDIXIC ACID] | 8 µg/mL (≈ 34.4 µM)
37 | C[C@@H]1CN(c2c(F)c(N)c3c(=O)c(C(=O)O)cn(C4CC4)c3c2F)C[C@H](C)N1 [SPARFLOXACIN] | 0.25 µg/mL (≈ 0.637 µM)
